Data as given in patent US12048686B2, “Compositions and methods for activating NRF2-dependent gene expression” (The University of Chicago, priority 2018, dated 2024).

What was measured:
KEAP1 [1] = biological target: T1, KEAP1 (Homo sapiens, UniProt Q14145); test: Targeted proteomic analysis of crosslinked KEAP1 peptides; type: cell-based; details: gel-isolated HMW-KEAP1 vs monomeric KEAP1
T1 construct: full-length, human KEAP1 (28023, Addgene) was transiently expressed from a pcDNA/FRT/TO plasmid with a C-terminal 3×FLAG tag; host or cells: HEK293T
Method: In-gel digestion of KEAP1 Targeted proteomic analyses of KEAP1 protein were performed by running anti-FLAG enriched HMW-KEAP1 and LMW-KEAP1 (from both CBR-470-1 or MGx treatments as above) on SDS-PAGE gels, and isolated gel pieces were digested in-gel with sequencing grade trypsin (Promega), as previously reported^35. Tryptic peptides from in-gel tryptic digestions were dissolved in 100 mM Tris-HCl, pH 8.0, with 2 mM of CaCl2), and further digested with mass spectrometry-grade chymotrypsin (Thermo Scientific) according to manufacturer's protocol. Chymotryptic digestion reactions were stopped by acidification, and desalted on Ziptip C18 tips.
Targeted proteomic analysis of crosslinked KEAP1 peptides. Double digested KEAP1 peptides from isolated HMW-KEAP1 and monomeric KEAP1 were analyzed by LC-MS/MS on an Easy-nLC 1000 ultra-high pressure LC system coupled to a Q Exactive HF orbitrap and Easy-Spray nanosource as indicated above. Candidate peptides were initially searched by manual inspection of chromatograms and MS1 spectra for m/z values of peptide candidates from predicted digestion sites, crosslink sites and differential presence in HMW- and monomeric KEAP1 from both CBR-470-1 and MGx treated samples. Extracted MS1 ions of the candidates were present in HMW-KEAP1 digests but not in LMW-KEAP1 digests. […]

KEAP1 [2] = test: Western blot of KEAP1 / HMW-KEAP1 formation in treated cells (HEK293T FLAG-KEAP1, IMR32); type: cell-based, human
Method: FLAG-tagged Protein Expression and Western Blotting. Full-length, human PGK1 (NM_000291, Origene) transiently expressed from a pCMV6 entry vector with a C-terminal Myc-DDK tag; full-length, human KEAP1 (28023, Addgene) was transiently expressed from a pcDNA/FRT/TO plasmid with a C-terminal 3×FLAG tag. All references to FLAG-PGK1 or FLAG-KEAP1 represent the proteins in the aforementioned vectors, respectively. Transient protein expression was performed in confluent 10 cm plates of HEK293T cells by transfection of 1 μg plasmid with Lipofectamine 2000 (Invitrogen) according to manufacturer's protocol. For in situ compound or metabolite treatment experiments, compounds were added approximately 24 hours after transfection, and incubated for the indicated duration. For FLAG-KEAP1 western blotting and immunoprecipitation experiments, cells were harvested by scraping, pelleted by centrifugation, washed twice with PBS and lysed in 8 M urea, 50 mM NH4HCO3, phosphatase inhibitor cocktail (Sigma Aldrich), and EDTA-free complete protease inhibitor (Roche), pH 8.0, at 4° C. Lysate was sonicated (Fisher Scientific FB-505), insoluble debris cleared by centrifugation, and the supernatant was diluted into 4× Laemmli buffer containing 50 mM dithiothreitol (DTT) as a reducing agent. Samples were prepared for SDS-PAGE by heating to 95° C. for 5 minutes, cooled to room temperature, resolved on NuPAGE Novex 4-12% Bis-Tris Protein Gels (Invitrogen), and transferred onto nitrocellulose membranes by standard western blotting methods. Membranes were blocked in 2% BSA in TBS containing 0.1% tween-20 (TBST) and probed with primary and secondary antibodies. Primary antibodies used in this study include: anti-FLAG-M2 (1:1000, F1804, Sigma Aldrich), anti-KEAP1 (1:500, SC-15246, Santa Cruz), anti-HSPA1A (1:1000, 4872, Cell Signaling), anti-ACTB (1:1000, 4790, Cell Signaling), anti-GAPDH (1:1000, 2118S, Cell Signaling) and TUBG (1:1000, 5886, Cell Signaling). […]

T1 sequence (Q14145 whole entry): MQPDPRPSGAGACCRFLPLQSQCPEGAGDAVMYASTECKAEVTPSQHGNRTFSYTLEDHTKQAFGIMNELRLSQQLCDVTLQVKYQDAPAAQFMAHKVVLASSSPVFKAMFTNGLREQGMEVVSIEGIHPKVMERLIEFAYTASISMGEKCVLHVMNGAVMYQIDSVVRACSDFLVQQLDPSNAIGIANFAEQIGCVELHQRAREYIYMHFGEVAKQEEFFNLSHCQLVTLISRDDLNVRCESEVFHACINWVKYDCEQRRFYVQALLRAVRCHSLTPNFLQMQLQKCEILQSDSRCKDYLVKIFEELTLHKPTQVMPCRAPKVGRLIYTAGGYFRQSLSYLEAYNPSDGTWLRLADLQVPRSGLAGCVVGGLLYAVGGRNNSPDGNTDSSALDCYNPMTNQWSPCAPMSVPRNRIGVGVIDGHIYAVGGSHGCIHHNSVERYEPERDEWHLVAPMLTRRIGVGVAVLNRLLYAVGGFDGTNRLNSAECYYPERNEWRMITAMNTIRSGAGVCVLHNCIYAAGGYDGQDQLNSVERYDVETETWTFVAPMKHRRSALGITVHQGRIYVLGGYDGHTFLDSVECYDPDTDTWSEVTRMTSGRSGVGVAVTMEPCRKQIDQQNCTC

Structure (SMILES) | MICA crosslinked C151-R135 KEAP1 peptide (KEAP1 [1]) | KEAP1 levels and α-pgK immunoreactive bands (KEAP1 [2]; IMR32 cells, 30 minutes) | high molecular weight KEAP1 (HMW-KEAP1) band (KEAP1 [2]; Western blot of treated cells) | formation of HMW-KEAP1 (KEAP1 [2]; treatment of cell lysates or live cells with metabolite)
CC(C)CN[C@H]1CS(=O)(=O)C[C@@H]1S(=O)(=O)c1ccc(Cl)cc1 [CBR-470-1] | MICA crosslink between C151 and R135 was identified in isolated HMW-KEAP1 | did not result in altered KEAP1 levels, or any α-pgK immunoreactive bands | dose-dependent, high molecular weight KEAP1 (HMW-KEAP1) band | –
CC(=O)C=O [MGx, methylglyoxal, reference compound] | MICA crosslink between C151 and R135 was identified in isolated HMW-KEAP1 | – | – | selective formation of HMW-KEAP1
